Our source for the IC50 values is US8580825B2, “Oxadiazole inhibitors of leukotriene production” (Boehringer Ingelheim International GmbH, priority 2010, dated 2013).

Assay [1] deals with T1, recombinant human FLAP protein (Homo sapiens, UniProt P20292).
T1 construct: made in house; host or cells: Sf9 insect cells (100,000xg membrane fraction used)
T1 sequence (P20292 1-161): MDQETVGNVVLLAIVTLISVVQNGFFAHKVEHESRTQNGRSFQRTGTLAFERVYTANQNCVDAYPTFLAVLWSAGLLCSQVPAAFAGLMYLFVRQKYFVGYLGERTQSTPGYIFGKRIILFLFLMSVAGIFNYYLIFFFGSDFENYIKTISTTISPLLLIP
Briefly: FLAP binding assay (Scintillation Proximity Assay, displacement of [125I]L-691,831). Conditions: read-out: FLAP SPA IC50. The method, boiled down:
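Scintillation proximity displacement of [125I]L-691,831 (0.08 nM) from membranes of sf9 cells expressing recombinant human FLAP (5 μg/well) on WGA SPA beads, pH 7.5 Tris buffer. Plates shaken 2 h before counting. Non-specific binding defined with 10 μM unlabelled L-691,831.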

In assay [2] the test system is synthesis of LTB4 in human whole blood. Briefly: human whole blood LTB4 production inhibition assay. Type of assay: cell-based. The note with it: calcimycin stimulated, read-out: hWB LTB4 IC50. The method, boiled down: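 Heparinized human whole blood was preincubated with compound for 15 min at 37° C, then stimulated with calcimycin (20 μM final, in PBS pH 7.4) for a further 30 min at 37° C. Plasma LTB4 was quantified by antibody-based homogeneous time-resolved fluorescence.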

The term IC50 denotes the point on the concentration scale where inhibition reaches its midpoint.

Turning to `CC(C)(O)Cn1cc(-c2nc([C@@](C)(c3ccc(-c4cnc(N)cn4)nc3)C3CC3)no2)cn1` [Example 100, 1-[4-(3-{(R)-1-[6-(5-Amino-pyrazin-2-yl)-pyridin-3-yl]-1-cyclopropyl-ethyl}-[1,2,4]oxadiazol-5-yl)-pyrazol-1-yl]-2-methyl-propan-2-ol], the IC50 in assay [1] worked out at 53 nM; in assay [2] it was 210 nM.
As for `CC(C)(O)Cn1cc(-c2nc([C@](C)(c3ccc(-c4cnc(N)cn4)nc3)C3CC3)no2)cn1` [Example 101, 1-[4-(3-{(S)-1-[6-(5-Amino-pyrazin-2-yl)-pyridin-3-yl]-1-cyclopropyl-ethyl}-[1,2,4]oxadiazol-5-yl)-pyrazol-1-yl]-2-methyl-propan-2-ol], the IC50 came to 280 nM in assay [1] and 990 nM in assay [2].
On to `CC(C)(C)NC(=O)Cn1cc(-c2nc([C@@](C)(c3ccc(-c4cnc(N)nc4)nc3)C3CC3)no2)cn1` [Example 102, 2-[4-(3-{(R)-1-[6-(2-Amino-pyrimidin-5-yl)-pyridin-3-yl]-1-cyclopropyl-ethyl}-[1,2,4]oxadiazol-5-yl)-pyrazol-1-yl]-N-tert-butyl-acetamide], for which the half-maximal inhibitory concentration (IC50) in assay [1] was found to be 13 nM; in assay [2] it was 89 nM.
The corresponding values for `COCCn1cc(-c2nc([C@@](C)(c3ccc(-c4cnc(N)cn4)nc3)C(C)C)no2)cn1` [Example 104, 5-[5-((R)-1-{5-[1-(2-Methoxy-ethyl)-1H-pyrazol-4-yl]-[1,2,4]oxadiazol-3-yl}-1,2-dimethyl-propyl)-pyridin-2-yl]-pyrazin-2-ylamine] are 5.7 nM and 17 nM.
With `CC(C)[C@](C)(c1ccc(-c2cnc(N)cn2)nc1)c1noc(-c2cnc(N3CCNCC3)cn2)n1` [Example 105, 5-(5-{(R)-1,2-Dimethyl-1-[5-(3,4,5,6-tetrahydro-2H-[1,2′]bipyrazinyl-5′-yl)-[1,2,4]oxadiazol-3-yl]-propyl}-pyridin-2-yl)-pyrazin-2-ylamine], the IC50 in assay [1] worked out at 7.8 nM; in assay [2], 450 nM.
In the same order, the values of `CN(C(=O)Cn1cc(-c2nc([C@@](C)(c3ccc(-c4cnc(N)nc4)nc3)C3CC3)no2)cn1)C(C)(C)C` [Example 106, 2-[4-(3-{(R)-1-[6-(2-Amino-pyrimidin-5-yl)-pyridin-3-yl]-1-cyclopropyl-ethyl}-[1,2,4]oxadiazol-5-yl)-pyrazol-1-yl]-N-tert-butyl-N-methyl-acetamide] are 10 nM and 30 nM.
The corresponding values for `CO[C@@H]1CCN(C(=O)Cn2cc(-c3nc([C@@](C)(c4ccc(-c5cnc(N)nc5)nc4)C4CC4)no3)cn2)C1` [Example 107, 2-[4-(3-{(R)-1-[6-(2-Amino-pyrimidin-5-yl)-pyridin-3-yl]-1-cyclopropyl-ethyl}-[1,2,4]oxadiazol-5-yl)-pyrazol-1-yl]-1-((R)-3-methoxy-pyrrolidin-1-yl)-ethanone] are 72 nM and 220 nM.
The corresponding values for `COCCn1cc(-c2nc([C@](C)(c3ccc(-c4ccc(N)nc4)nc3)C3CC3)no2)cn1` [Example 108, 5-((S)-1-Cyclopropyl-1-{5-[1-(2-methoxy-ethyl)-1H-pyrazol-4-yl]-[1,2,4]oxadiazol-3-yl}-ethyl)-[2,3′]bipyridinyl-6′-ylamine] are 360 nM and 2300 nM.
In the case of `CC(C)(O)Cn1cc(-c2nc([C@](C)(c3ccc(-c4ccc(N)nc4)nc3)C3CC3)no2)cn1` [Example 109, 1-(4-{3-[(S)-1-(6′-Amino-[2,3′]bipyridinyl-5-yl)-1-cyclopropyl-ethyl]-[1,2,4]oxadiazol-5-yl}-pyrazol-1-yl)-2-methyl-propan-2-ol], the figures for the IC50 in assay [1] and in assay [2] were 350 nM and 1100 nM, respectively.
The corresponding values for `CC(C)[C@](C)(c1ccc(-c2cnc(N)cn2)nc1)c1noc(-c2cnn(CC(C)(C)O)c2)n1` [Example 110, 1-[4-(3-{(R)-1-[6-(5-Amino-pyrazin-2-yl)-pyridin-3-yl]-1,2-dimethyl-propyl}-[1,2,4]oxadiazol-5-yl)-pyrazol-1-yl]-2-methyl-propan-2-ol] are 5.9 nM and 31 nM.
In the same order, the values of `CC(C)[C@](C)(c1ccc(-c2cnc(N)cn2)nc1)c1noc(-c2cnn(CC(=O)N(C)C)c2)n1` [Example 112, 2-[4-(3-{(R)-[6-(5-Amino-pyrazin-2-yl)-pyridin-3-yl]-1,2-dimethyl-propyl}-[1,2,4]oxadiazol-5-yl)-pyrazol-1-yl]-N,N-dimethyl-acetamide] are 4.8 nM and 71 nM.
In the same order, the values of `CC(C)[C@](C)(c1ccc(-c2cnc(N)cn2)nc1)c1noc(-c2cnn(C3COC3)c2)n1` [Example 113, 5-(5-{(R)-1,2-Dimethyl-1-[5-(1-oxetan-3-yl-1H-pyrazol-4-yl)-[1,2,4]oxadiazol-3-yl]-propyl}-pyridin-2-yl)-pyrazin-2-ylamine] are 4 nM and 12 nM.
For the molecule `C[C@@](c1ccc(-c2ccc(N)nc2)nc1)(c1noc(-c2cnn(C(CO)CO)c2)n1)C1CC1` [Example 114, 2-(4-{3-[(R)-1-(6′-Amino-[2,3′]bipyridinyl-5-yl)-1-cyclopropyl-ethyl]-[1,2,4]oxadiazol-5-yl}-pyrazol-1-yl)-propane-1,3-diol], the IC50 amounted to 52 nM in assay [1] and 850 nM in assay [2].
In the same order, the values of `C[C@@](c1ccc(-c2ccc(N)nc2)nc1)(c1noc(-c2cnn(C3COC3)c2)n1)C1CC1` [Example 115, 5-{(R)-1-Cyclopropyl-1-[5-(1-oxetan-3-yl-1H-pyrazol-4-yl)-[1,2,4]oxadiazol-3-yl]-ethyl}-[2,3′]bipyridinyl-6′-ylamine] are 24 nM and 110 nM.
In the case of `C[C@](c1ccc(-c2ccc(N)nc2)nc1)(c1noc(-c2cnn(C3COC3)c2)n1)C1CC1` [Example 116, 5-{(S)-1-Cyclopropyl-1-[5-(1-oxetan-3-yl-1H-pyrazol-4-yl)-[1,2,4]oxadiazol-3-yl]-ethyl}-[2,3′]bipyridinyl-6′-ylamine], the IC50 in assay [1] was determined as 360 nM; in assay [2] it was 2000 nM.
The corresponding values for `C[C@@](c1ccc(-c2cnc(N)nc2)nc1)(c1noc(-c2cn[nH]c2)n1)C1CC1` [Example 117, 5-(5-{(R)-1-Cyclopropyl-1-[5-(1H-pyrazol-4-yl)-[1,2,4]oxadiazol-3-yl]-ethyl}-pyridin-2-yl)-pyrimidin-2-ylamine] are 8.7 nM and 86 nM.
As for `Cn1cc(-c2nc(C(C)(c3ccc(-c4ccc(N)nc4)nc3)C3CC3)no2)cn1` (stereo not drawn) [Example 118, 5-{1-Cyclopropyl-1-[5-(1-methyl-1H-pyrazol-4-yl)-[1,2,4]oxadiazol-3-yl]-ethyl}-[2,3′]bipyridinyl-6′-ylamine], the IC50 in assay [1] worked out at 47 nM; in assay [2], 210 nM.
The corresponding values for `CC(C)[C@](C)(c1ccc(-c2cnc(N)[nH]c2=O)nc1)c1noc(-c2cnn(CC(C)(C)O)c2)n1` [Example 119, 2-Amino-5-[5-((R)-1-{5-[1-(2-hydroxy-2-methyl-propyl)-1H-pyrazol-4-yl]-[1,2,4]oxadiazol-3-yl}-1,2-dimethyl-propyl)-pyridin-2-yl]-3H-pyrimidin-4-one] are 3.4 nM and 2200 nM.
The corresponding values for `CN(C)CCn1cc(-c2nc(C(C)(c3ccc(-c4ccc(N)nc4)nc3)C3CC3)no2)cn1` (stereo not drawn) [Example 120, 5-(1-Cyclopropyl-1-{5-[1-(2-dimethylamino-ethyl)-1H-pyrazol-4-yl]-[1,2,4]oxadiazol-3-yl}-ethyl)-[2,3′]bipyridinyl-6′-ylamine] are 42 nM and 300 nM.
The corresponding values for `CO[C@H]1CCN(C(=O)Cn2cc(-c3nc([C@@](C)(c4ccc(-c5cnc(N)nc5)nc4)C4CC4)no3)cn2)C1` [Example 121, 2-[4-(3-{(R)-1-[6-(2-Amino-pyrimidin-5-yl)-pyridin-3-yl]-1-cyclopropyl-ethyl}-[1,2,4]oxadiazol-5-yl)-pyrazol-1-yl]-1-((S)-3-methoxy-pyrrolidin-1-yl)-ethanone] are 67 nM and 220 nM.
Take `CN(C)C(=O)Cn1cc(-c2nc([C@@](C)(c3ccc(-c4cnc(N)cn4)nc3)C3CC3)no2)cn1` [Example 122, 2-[4-(3-{(R)-1-[6-(5-Amino-pyrazin-2-yl)-pyridin-3-yl]-1-cyclopropyl-ethyl}-[1,2,4]oxadiazol-5-yl)-pyrazol-1-yl]-N,N-dimethyl-acetamide]: the figures for the half-maximal inhibitory concentration (IC50) in assay [1] and in assay [2] were 34 nM and 450 nM, respectively.
The corresponding values for `CN(C)C(=O)Cn1cc(-c2nc([C@](C)(c3ccc(-c4cnc(N)cn4)nc3)C3CC3)no2)cn1` [Example 123, 2-[4-(3-{(S)-1-[6-(5-Amino-pyrazin-2-yl)-pyridin-3-yl]-1-cyclopropyl-ethyl}-[1,2,4]oxadiazol-5-yl)-pyrazol-1-yl]-N,N-dimethyl-acetamide] are 300 nM and 3300 nM.
The corresponding values for `CN(C)CCn1cc(-c2nc([C@@](C)(c3ccc(-c4cnc(N)cn4)nc3)C3CC3)no2)cn1` [Example 124, 5-[5-((R)-1-Cyclopropyl-1-{5-[1-(2-dimethylamino-ethyl)-1H-pyrazol-4-yl]-[1,2,4]oxadiazol-3-yl}-ethyl)-pyridin-2-yl]-pyrazin-2-ylamine] are 18 nM and 60 nM.
In the same order, the values of `CN(C)CCn1cc(-c2nc([C@](C)(c3ccc(-c4cnc(N)cn4)nc3)C3CC3)no2)cn1` [Example 125, 5-[5-((S)-1-Cyclopropyl-1-{5-[1-(2-dimethylamino-ethyl)-1H-pyrazol-4-yl]-[1,2,4]oxadiazol-3-yl}-ethyl)-pyridin-2-yl]-pyrazin-2-ylamine] are 120 nM and 370 nM.
